From PMC5218480 (PLoS ONE, 2017)

Tested on: MV-4-11 cells
Test: Gene expression microarray analysis (Affymetrix PrimeView) and GSEA
Type: cell-based, human
Parameters: RFU PODN (11730768_x_at) / Fold change /veh PODN (11730768_x_at) / RFU LINC00158 (11744669_a_at) / Fold change /veh LINC00158 (11744669_a_at) / RFU DUSP10 (11751237_a_at) / Fold change /veh DUSP10 (11751237_a_at) / RFU ID3 (11757404_x_at) / Fold change /veh ID3 (11757404_x_at) / RFU PLEKHG5 (11737974_s_at) / Fold change /veh PLEKHG5 (11737974_s_at) / RFU LRRC4B (11730491_at) / Fold change /veh LRRC4B (11730491_at) / RFU GIMAP4 (11747438_a_at) / Fold change /veh GIMAP4 (11747438_a_at) / RFU KRT8 (11758183_x_at) / Fold change /veh KRT8 (11758183_x_at) / RFU CNN1 (11734310_a_at) / Fold change /veh CNN1 (11734310_a_at) / RFU VPS37D (11726825_at) / Fold change /veh VPS37D (11726825_at) / RFU C10orf10 (11716522_x_at) / Fold change /veh C10orf10 (11716522_x_at) / RFU KIR2DL2 /// KIR2DL4 /// KIR2DL5A /// KIR2DL5B /// KIR2DS1 /// KIR2DS2 /// KIR2DS3 /// KIR2DS4 /// KIR3DL3 /// KIR3DL3 /// KIR3DS1 (11738374_at) / Fold change /veh KIR2DL2 /// KIR2DL4 /// KIR2DL5A /// KIR2DL5B /// KIR2DS1 /// KIR2DS2 /// KIR2DS3 /// KIR2DS4 /// KIR3DL3 /// KIR3DL3 /// KIR3DS1 (11738374_at) / RFU C1QL1 (11718748_at) / Fold change /veh C1QL1 (11718748_at) / RFU TMPRSS4 (11747572_a_at) / Fold change /veh TMPRSS4 (11747572_a_at) / RFU HAMP (11756126_x_at) / Fold change /veh HAMP (11756126_x_at) / RFU RNFT2 (11725882_a_at) / Fold change /veh RNFT2 (11725882_a_at) / RFU NR4A2 (11747474_a_at) / Fold change /veh NR4A2 (11747474_a_at) / RFU ABCC12 (11746883_a_at) / Fold change /veh ABCC12 (11746883_a_at) / RFU TMEM136 (11760407_x_at) / Fold change /veh TMEM136 (11760407_x_at) / RFU CLDN22 /// WWC2 (11732394_at) / Fold change /veh CLDN22 /// WWC2 (11732394_at) / RFU HLA-DPB1 (11760878_x_at) / Fold change /veh HLA-DPB1 (11760878_x_at) / RFU SPINT1 (11716480_a_at) / Fold change /veh SPINT1 (11716480_a_at) / RFU GAP43 (11754022_s_at) / Fold change /veh GAP43 (11754022_s_at) / RFU A4GNT (11735810_at) / Fold change /veh A4GNT (11735810_at) / RFU PRB3 (11715151_x_at) / Fold change /veh PRB3 (11715151_x_at) / RFU TUBB4B (11761932_at) / Fold change /veh TUBB4B (11761932_at) / RFU CAPN14 (11732068_a_at) / Fold change /veh CAPN14 (11732068_a_at) / RFU TMCC2 (11721928_a_at) / Fold change /veh TMCC2 (11721928_a_at) / RFU IRGQ (11745062_a_at) / Fold change /veh IRGQ (11745062_a_at) / RFU FAM174B (11720279_a_at) / Fold change /veh FAM174B (11720279_a_at) / RFU TMPRSS4 (11748680_a_at) / Fold change /veh TMPRSS4 (11748680_a_at) / RFU FAM212B (11763350_a_at) / Fold change /veh FAM212B (11763350_a_at) / RFU PLEKHG5 (11743358_a_at) / Fold change /veh PLEKHG5 (11743358_a_at) / RFU ZSCAN30 (11745921_a_at) / Fold change /veh ZSCAN30 (11745921_a_at) / RFU CMKLR1 (11741424_a_at) / Fold change /veh CMKLR1 (11741424_a_at) / RFU LOC101060620 /// MAPK8IP1 (11723275_at) / Fold change /veh LOC101060620 /// MAPK8IP1 (11723275_at) / RFU SPTSSB (11747773_x_at) / Fold change /veh SPTSSB (11747773_x_at) / RFU PRSS12 (11739890_at) / Fold change /veh PRSS12 (11739890_at) / RFU BIN1 (11741810_x_at) / Fold change /veh BIN1 (11741810_x_at) / RFU WNT11 (11732464_a_at) / Fold change /veh WNT11 (11732464_a_at) / RFU C10orf10 (11716521_a_at) / Fold change /veh C10orf10 (11716521_a_at) / RFU C5orf56 (11738089_at) / Fold change /veh C5orf56 (11738089_at) / RFU CYB561 (11721691_x_at) / Fold change /veh CYB561 (11721691_x_at) / RFU ANKRD19P (11752326_a_at) / Fold change /veh ANKRD19P (11752326_a_at) / RFU OR2T12 /// OR2T33 /// OR2T8 (11738714_s_at) / Fold change /veh OR2T12 /// OR2T33 /// OR2T8 (11738714_s_at) / RFU VCAN (11748164_a_at) / Fold change /veh VCAN (11748164_a_at) / RFU JSRP1 (11732532_at) / Fold change /veh JSRP1 (11732532_at) / RFU KRTAP10-11 (11738290_x_at) / Fold change /veh KRTAP10-11 (11738290_x_at) / RFU MYO3A (11730013_a_at) / Fold change /veh MYO3A (11730013_a_at) / RFU EBF3 (11725865_a_at) / Fold change /veh EBF3 (11725865_a_at) / RFU CAMK2N1 (11719241_x_at) / Fold change /veh CAMK2N1 (11719241_x_at) / RFU C5orf56 (11738088_a_at) / Fold change /veh C5orf56 (11738088_a_at) / RFU OLFML3 (11715873_a_at) / Fold change /veh OLFML3 (11715873_a_at) / RFU LOC100653217 /// NTM (11731650_a_at) / Fold change /veh LOC100653217 /// NTM (11731650_a_at) / RFU MAPK11 (11762145_a_at) / Fold change /veh MAPK11 (11762145_a_at) / RFU FIZ1 (11724087_x_at) / Fold change /veh FIZ1 (11724087_x_at) / RFU OASL (11726364_x_at) / Fold change /veh OASL (11726364_x_at) / RFU SOX15 (11748057_x_at) / Fold change /veh SOX15 (11748057_x_at) / RFU CD79A (11719716_a_at) / Fold change /veh CD79A (11719716_a_at) / RFU HIST1H1D (11736915_at) / Fold change /veh HIST1H1D (11736915_at) / RFU CASKIN2 (11723855_a_at) / Fold change /veh CASKIN2 (11723855_a_at) / RFU LOC730098 (11760151_x_at) / Fold change /veh LOC730098 (11760151_x_at) / RFU OR4N2 (11742367_at) / Fold change /veh OR4N2 (11742367_at) / RFU PRRT2 (11749266_a_at) / Fold change /veh PRRT2 (11749266_a_at) / RFU SNX32 (11753110_a_at) / Fold change /veh SNX32 (11753110_a_at) / RFU CDHR5 (11726645_a_at) / Fold change /veh CDHR5 (11726645_a_at) / RFU RCAN1 (11760418_a_at) / Fold change /veh RCAN1 (11760418_a_at) / RFU FAM167A (11723789_a_at) / Fold change /veh FAM167A (11723789_a_at) / RFU FAM26E (11764081_at) / Fold change /veh FAM26E (11764081_at) / RFU ISYNA1 (11749810_s_at) / Fold change /veh ISYNA1 (11749810_s_at) / RFU ACY1 (11761880_at) / Fold change /veh ACY1 (11761880_at) / RFU 11764098_at / Fold change /veh 11764098_at / RFU SAMD14 (11745864_x_at) / Fold change /veh SAMD14 (11745864_x_at) / RFU NPB (11741838_a_at) / Fold change /veh NPB (11741838_a_at) / RFU TMPRSS6 (11731388_a_at) / Fold change /veh TMPRSS6 (11731388_a_at) / RFU KRTAP10-2 (11738614_at) / Fold change /veh KRTAP10-2 (11738614_at) / RFU ARHGAP8 /// PRR5-ARHGAP8 (11727945_x_at) / Fold change /veh ARHGAP8 /// PRR5-ARHGAP8 (11727945_x_at) / RFU KRTAP5-7 /// NADSYN1 (11734609_at) / Fold change /veh KRTAP5-7 /// NADSYN1 (11734609_at) / RFU RASL12 (11751679_a_at) / Fold change /veh RASL12 (11751679_a_at) / RFU CDKN2B (11736163_a_at) / Fold change /veh CDKN2B (11736163_a_at) / RFU PRF1 (11729649_at) / Fold change /veh PRF1 (11729649_at) / RFU, ZNF638 /// ZNF638-IT1 / Fold change vs veh, ZNF638 /// ZNF638-IT1 / RFU, PANK3 / Fold change vs veh, PANK3 / RFU, SH3YL1 / Fold change vs veh, SH3YL1 / RFU, ZEB2 / Fold change vs veh, ZEB2 / RFU, NRIP1 / Fold change vs veh, NRIP1 / RFU, PTTG1IP / Fold change vs veh, PTTG1IP / RFU, CAPN2 / Fold change vs veh, CAPN2 / RFU, MED14 / Fold change vs veh, MED14 / RFU, SNORA58 / Fold change vs veh, SNORA58 / RFU, C1orf63 / Fold change vs veh, C1orf63 / RFU, LRRFIP1 / Fold change vs veh, LRRFIP1 / RFU, NDUFAF7 / Fold change vs veh, NDUFAF7 / RFU, SLC12A2 / Fold change vs veh, SLC12A2 / RFU, IBTK / Fold change vs veh, IBTK / RFU, ESF1 / Fold change vs veh, ESF1 / Fold change vs veh, TMEM50B / RFU, TAOK1 / Fold change vs veh, TAOK1 / RFU, ACBD3 / Fold change vs veh, ACBD3 / RFU, TMA16 / Fold change vs veh, TMA16 / RFU, RWDD3 / Fold change vs veh, RWDD3 / RFU, BCAT1 / Fold change vs veh, BCAT1 / RFU, EDEM3 / Fold change vs veh, EDEM3 / RFU, TMEM33 / Fold change vs veh, TMEM33 / RFU, WDR75 / Fold change vs veh, WDR75 / RFU, AHCTF1 / Fold change vs veh, AHCTF1 / RFU, TFRC / Fold change vs veh, TFRC / RFU, ZDHHC17 / Fold change vs veh, ZDHHC17 / RFU, NOM1 / Fold change vs veh, NOM1 / RFU, ARL8B / Fold change vs veh, ARL8B / RFU, ZBTB11 / Fold change vs veh, ZBTB11 / RFU, TAMM41 / Fold change vs veh, TAMM41 / RFU, KIAA1704 /// LOC100996395 / Fold change vs veh, KIAA1704 /// LOC100996395 / RFU, ING1 / Fold change vs veh, ING1 / RFU, TRMT61B / Fold change vs veh, TRMT61B / RFU, FUBP3 / Fold change vs veh, FUBP3 / RFU, TP53 / Fold change vs veh, TP53 / RFU, TNKS2 / Fold change vs veh, TNKS2 / RFU, ZFP14 / Fold change vs veh, ZFP14 / RFU, ACTR2 / Fold change vs veh, ACTR2 / RFU, PPP3R1 / Fold change vs veh, PPP3R1 / RFU, PIK3R1 / Fold change vs veh, PIK3R1 / RFU, HNRNPA1 / Fold change vs veh, HNRNPA1 / RFU, RNF170 / Fold change vs veh, RNF170 / RFU, ZNF28 / Fold change vs veh, ZNF28 / RFU, RNGTT / Fold change vs veh, RNGTT / RFU, OGT / Fold change vs veh, OGT / RFU, BRD1 / Fold change vs veh, BRD1 / RFU, MARS / Fold change vs veh, MARS / RFU, ZNF655 / Fold change vs veh, ZNF655 / RFU, FAHD1 / Fold change vs veh, FAHD1 / RFU, BDP1 / Fold change vs veh, BDP1 / RFU, LRRCC1 / Fold change vs veh, LRRCC1 / RFU, ARID1A / Fold change vs veh, ARID1A / RFU, ZNF146 / Fold change vs veh, ZNF146 / RFU, ZNF330 / Fold change vs veh, ZNF330 / RFU, GPN3 / Fold change vs veh, GPN3 / RFU, C9orf123 / Fold change vs veh, C9orf123 / RFU, N4BP2L2 / Fold change vs veh, N4BP2L2 / RFU, ARFIP1 / Fold change vs veh, ARFIP1 / RFU, FAM179B / Fold change vs veh, FAM179B / RFU, BCL10 / Fold change vs veh, BCL10 / RFU, UHRF1BP1L / Fold change vs veh, UHRF1BP1L / RFU, BET1 / Fold change vs veh, BET1 / RFU, CNOT2 / Fold change vs veh, CNOT2 / RFU, ZNF268 / Fold change vs veh, ZNF268 / Fold change vs veh, ZNF507 / RFU, DGCR2 / Fold change vs veh, DGCR2 / RFU, WDSUB1 / Fold change vs veh, WDSUB1 / Fold change vs veh, HSP90B1 /// MIR3652 / RFU, ADSS / Fold change vs veh, ADSS / RFU, GK / Fold change vs veh, GK / RFU, ZNF148 / Fold change vs veh, ZNF148 / RFU, TAF9 / Fold change vs veh, TAF9 / RFU, SLC1A5 / Fold change vs veh, SLC1A5 / RFU, SLMO2 / Fold change vs veh, SLMO2 / RFU, ABCC4 / Fold change vs veh, ABCC4 / RFU, LOC101060439 /// RAP1B / Fold change vs veh, LOC101060439 /// RAP1B / RFU, RFX7 / Fold change vs veh, RFX7 / RFU, GTPBP10 / Fold change vs veh, GTPBP10 / RFU, CNEP1R1 / Fold change vs veh, CNEP1R1 / RFU, BIVM-ERCC5 /// ERCC5 / Fold change vs veh, BIVM-ERCC5 /// ERCC5 / RFU, ILF3 / Fold change vs veh, ILF3 / RFU 11762660_at / Fold change /veh 11762660_at / RFU VCAN (11757783_s_at) / Fold change /veh VCAN (11757783_s_at) / RFU DDX43 (11728927_at) / Fold change /veh DDX43 (11728927_at) / RFU KRT8 (11758188_x_at) / Fold change /veh KRT8 (11758188_x_at) / RFU NKD1 (11759106_at) / Fold change /veh NKD1 (11759106_at) / RFU SRD5A1 (11742802_a_at) / Fold change /veh SRD5A1 (11742802_a_at) / RFU TPSAB1 /// TPSB2 (11721975_s_at) / Fold change /veh TPSAB1 /// TPSB2 (11721975_s_at) / RFU GSTM3 (11746129_a_at) / Fold change /veh GSTM3 (11746129_a_at) / RFU IL23R (11737362_x_at) / Fold change /veh IL23R (11737362_x_at) / RFU TMEM51 (11727254_a_at) / Fold change /veh TMEM51 (11727254_a_at) / RFU PIWIL2 (11732686_x_at) / Fold change /veh PIWIL2 (11732686_x_at) / RFU ORM1 (11744905_x_at) / Fold change /veh ORM1 (11744905_x_at) / RFU CCDC152 (11743942_at) / Fold change /veh CCDC152 (11743942_at) / RFU ECM1 (11717891_a_at) / Fold change /veh ECM1 (11717891_a_at) / RFU IL23R (11748794_a_at) / Fold change /veh IL23R (11748794_a_at) / RFU TNFAIP8L3 (11732012_x_at) / Fold change /veh TNFAIP8L3 (11732012_x_at) / RFU MBOAT4 (11741988_at) / Fold change /veh MBOAT4 (11741988_at) / RFU 11764193_at / Fold change /veh 11764193_at / RFU TMEM53 (11763286_at) / Fold change /veh TMEM53 (11763286_at) / RFU MAGEB2 (11727129_at) / Fold change /veh MAGEB2 (11727129_at) / RFU TMEM200A (11744735_a_at) / Fold change /veh TMEM200A (11744735_a_at) / RFU CCDC152 (11751479_a_at) / Fold change /veh CCDC152 (11751479_a_at) / RFU FAM211A (11726209_a_at) / Fold change /veh FAM211A (11726209_a_at) / RFU RGS16 (11746705_a_at) / Fold change /veh RGS16 (11746705_a_at) / RFU VCAN (11755009_s_at) / Fold change /veh VCAN (11755009_s_at) / RFU RHOB (11743442_s_at) / Fold change /veh RHOB (11743442_s_at) / RFU RGS16 (11720943_a_at) / Fold change /veh RGS16 (11720943_a_at) / RFU RGS16 (11720944_at) / Fold change /veh RGS16 (11720944_at) / RFU, VPS4B / Fold change vs veh, VPS4B / RFU, CREB1 / Fold change vs veh, CREB1 / RFU, DNAJC13 / Fold change vs veh, DNAJC13 / RFU, GNAQ / Fold change vs veh, GNAQ / RFU, CDK5R1 / Fold change vs veh, CDK5R1 / RFU, ZRANB3 / Fold change vs veh, ZRANB3 / RFU, CUL4A / Fold change vs veh, CUL4A / RFU, CCNY / Fold change vs veh, CCNY / RFU, UFL1 / Fold change vs veh, UFL1 / RFU, COG3 / Fold change vs veh, COG3 / RFU, DIAPH2 / Fold change vs veh, DIAPH2 / RFU, SKA2 / Fold change vs veh, SKA2 / RFU, AFF3 / Fold change vs veh, AFF3 / RFU, LMF1 / Fold change vs veh, LMF1 / RFU, IPO11 / Fold change vs veh, IPO11 / RFU, DFFB / Fold change vs veh, DFFB / RFU, FOXP1 / Fold change vs veh, FOXP1 / RFU, CARD8 / Fold change vs veh, CARD8 / RFU, STRN3 / Fold change vs veh, STRN3 / RFU, ADK / Fold change vs veh, ADK / RFU, RASSF2 / Fold change vs veh, RASSF2 / RFU, WIPF1 / Fold change vs veh, WIPF1 / RFU, LARP1B / Fold change vs veh, LARP1B / RFU, RASA1 / Fold change vs veh, RASA1 / RFU, RB1 / Fold change vs veh, RB1 / RFU, PPFIA1 / Fold change vs veh, PPFIA1 / RFU, MAT2A / Fold change vs veh, MAT2A / RFU, CCT5 / Fold change vs veh, CCT5 / RFU, WDR92 / Fold change vs veh, WDR92 / RFU, CUX1 / Fold change vs veh, CUX1 / RFU, TTC7A / Fold change vs veh, TTC7A / RFU, TMEM135 / Fold change vs veh, TMEM135 / RFU, DEPTOR / Fold change vs veh, DEPTOR / RFU, CPM / Fold change vs veh, CPM / RFU, DNAJB6 / Fold change vs veh, DNAJB6 / RFU, CACNA2D3 / Fold change vs veh, CACNA2D3 / RFU, DTX4 / Fold change vs veh, DTX4 / RFU, TFCP2 / Fold change vs veh, TFCP2 / RFU, GMCL1 /// GMCL1P1 / Fold change vs veh, GMCL1 /// GMCL1P1 / RFU, AEBP2 / Fold change vs veh, AEBP2 / RFU, SNHG1 /// SNORD22 /// SNORD25 /// SNORD26 /// SNORD27 /// SNORD28 /// SNORD29 /// SNORD31 / Fold change vs veh, SNHG1 /// SNORD22 /// SNORD25 /// SNORD26 /// SNORD27 /// SNORD28 /// SNORD29 /// SNORD31 / Fold change (Aza/veh), C12orf56 (ProbeSet 11735607_a_at) / Fold change (ACY-1035/veh), C12orf56 (ProbeSet 11735607_a_at) / Fold change (Aza/veh), FGFR1OP (ProbeSet 11751329_s_at) / Fold change (ACY-1035/veh), FGFR1OP (ProbeSet 11751329_s_at) / Fold change (Aza/veh), VPS36 (ProbeSet 11739960_a_at) / Fold change (ACY-1035/veh), VPS36 (ProbeSet 11739960_a_at) / RFU SYPL1 (11715823_x_at) / Fold change /veh SYPL1 (11715823_x_at) / RFU IGFBP7 (11715501_s_at) / Fold change /veh IGFBP7 (11715501_s_at) / RFU REEP3 (11722064_at) / Fold change /veh REEP3 (11722064_at) / RFU IGLL1 (11728026_x_at) / Fold change /veh IGLL1 (11728026_x_at): dose or concentration left out as unconfirmed
Conditions: ProbeSet 11743567_s_at; LIST B

Compound: Nc1ccc(-c2cccs2)cc1NC(=O)c1ccc2c(c1)cc(C1CC1)n2CCN1CCOCC1 [ACY-1035]
- RFU, ACBD3: 241.56 RFU
